PMC11206922, “Novel Histone Deacetylase (HDAC) Inhibitor Induces Apoptosis and Suppresses Invasion via E-Cadherin Upregulation in Pancreatic Ductal Adenocarcinoma (PDAC)” (Pharmaceuticals, 2024)

Target: T1, HDAC 2 (Homo sapiens, UniProt Q92769)
T1 construct: gene HDAC2
Assay: HDAC enzyme inhibition assay (details not shown)
Assay type: biochemical

T1 sequence (Q92769 whole entry): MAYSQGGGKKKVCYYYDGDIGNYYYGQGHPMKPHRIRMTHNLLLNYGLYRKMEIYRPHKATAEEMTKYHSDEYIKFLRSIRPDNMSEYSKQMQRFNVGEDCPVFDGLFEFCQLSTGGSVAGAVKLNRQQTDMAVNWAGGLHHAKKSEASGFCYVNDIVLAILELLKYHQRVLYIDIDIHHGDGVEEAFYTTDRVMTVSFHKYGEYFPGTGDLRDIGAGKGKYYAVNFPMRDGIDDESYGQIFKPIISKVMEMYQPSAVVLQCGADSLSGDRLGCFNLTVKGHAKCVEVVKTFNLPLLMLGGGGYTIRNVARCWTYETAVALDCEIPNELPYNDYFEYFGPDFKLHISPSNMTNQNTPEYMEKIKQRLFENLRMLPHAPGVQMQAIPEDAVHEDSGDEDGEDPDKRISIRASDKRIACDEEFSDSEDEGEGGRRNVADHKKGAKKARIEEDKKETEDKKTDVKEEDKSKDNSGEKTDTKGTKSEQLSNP

IC50: 0.058 ± 0.02 µM
Structure (SMILES): COc1cc(NC(=O)NCCCCCCC(=O)NO)c2nc(OC)cc(C)c2c1 [compound 8, MPK544]
